Laboratory results as given in PubChem BioAssay AID330 (DTP/NCI, 2004).
Several values for one entry are separate records, joined by “and”; a condition that tells them apart may be missing. Equal values may be shown once. Inconclusive results and toxic doses are left out. The calls were made as follows: active = survival T/C of 150% or more; inactive = T/C below 125% in these data.

Test system: P388 leukemia ip, CD2F1 mice, survival T/C
Assay: NCI In Vivo Anticancer Drug Screen. Data for tumor model P388 Leukemia (intraperitoneal) in CD2F1 (CDF1) mice
Conditions: endpoint: median survival time, higher = longer survival
Procedure, shortened: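 Mice carrying the transplanted tumor received test compound or vehicle. Survival was recorded in each group, and the value is the treated-group measurement divided by that of the vehicle-treated control group.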

[1] = dose: 30.0 mg/kg/injection, schedule: Q01DX005 (ip), vehicle: Klucel (hydroxypropylcellulose) (HPC)
[2] = dose: 50.0 mg/kg/injection, schedule: Q01DX005 (ip), vehicle: saline
[3] = dose: 100.0 mg/kg/injection, schedule: Q01DX005 (ip), vehicle: saline
[4] = dose: 60.0 mg/kg/injection, schedule: Q01DX005 (ip), vehicle: Klucel (hydroxypropylcellulose) (HPC)
[5] = dose: 120.0 mg/kg/injection, schedule: Q01DX005 (ip), vehicle: Klucel (hydroxypropylcellulose) (HPC)
[6] = dose: 240.0 mg/kg/injection, schedule: Q01DX005 (ip), vehicle: Klucel (hydroxypropylcellulose) (HPC)
[7] = dose: 6.25 mg/kg/injection, schedule: Q01DX009 (ip), vehicle: saline with Tween-80
[8] = dose: 12.5 mg/kg/injection, schedule: Q01DX009 (ip), vehicle: saline with Tween-80
[9] = dose: 25.0 mg/kg/injection, schedule: Q01DX009 (ip), vehicle: saline with Tween-80
[10] = dose: 100.0 mg/kg/injection, schedule: Q01DX009 (ip), vehicle: saline with Tween-80

Measured: T/C

CC1=C(CO)C(=O)O[C@@H]([C@@H](C)[C@H]2CC[C@H]3[C@@H]4C[C@H]5O[C@]56[C@@H](O)C=CC(=O)[C@]6(C)[C@H]4CC[C@]23C)C1
inactive: dose: 2.5 mg/kg/injection, schedule: Q04DX003 (ip), vehicle: saline 102 % of control and 103 % of control | dose: 5.0 mg/kg/injection, schedule: Q04DX003 (ip), vehicle: saline 100 % of control and 103 % of control | dose: 10.0 mg/kg/injection, schedule: Q04DX003 (ip), vehicle: saline 109 % of control and 110 % of control | dose: 20.0 mg/kg/injection, schedule: Q04DX003 (ip), vehicle: saline 102 % of control and 116 % of control | dose: 40.0 mg/kg/injection, schedule: Q04DX003 (ip), vehicle: saline 109 % of control and 123 % of control

CCOC(=O)NN(CC(=O)OCc1ccccc1)N=O
inactive: dose: 12.5 mg/kg/injection, schedule: Q01DX009 (ip), vehicle: other 109 % of control | dose: 25.0 mg/kg/injection, schedule: Q01DX009 (ip), vehicle: other 94 % of control | dose: 50.0 mg/kg/injection, schedule: Q01DX009 (ip), vehicle: other 100 % of control | dose: 100.0 mg/kg/injection, schedule: Q01DX009 (ip), vehicle: other 102 % of control | dose: 200.0 mg/kg/injection, schedule: Q01DX009 (ip), vehicle: other 98 % of control

Cc1sc2ccc3ccccc3c2[n+]1C
inactive: dose: 15.0 mg/kg/injection, schedule: Q01DX005 (ip), vehicle: saline 100 % of control and 106 % of control and 95 % of control | dose: 30.0 mg/kg/injection, schedule: Q01DX005 (ip), vehicle: saline 104 % of control and 108 % of control and 118 % of control | dose: 60.0 mg/kg/injection, schedule: Q01DX005 (ip), vehicle: saline 116 % of control | dose: 120.0 mg/kg/injection, schedule: Q01DX005 (ip), vehicle: saline 91 % of control and 114 % of control

OCC(O)C(O)C(O)C(/C=N\Nc1ccccc1)=N/Nc1ccccc1 (configuration not stated)
inactive: dose: 100.0 mg/kg/injection, schedule: Q04DX002 (ip), vehicle: saline 100 % of control | dose: 200.0 mg/kg/injection, schedule: Q04DX002 (ip), vehicle: saline 97 % of control | dose: 400.0 mg/kg/injection, schedule: Q04DX002 (ip), vehicle: saline 102 % of control

O=C1CCCN1C(=O)c1ccccc1
inactive: dose: 18.8 mg/kg/injection, schedule: Q01DX001 (ip), vehicle: saline sonified 105 % of control | dose: 37.5 mg/kg/injection, schedule: Q01DX001 (ip), vehicle: saline sonified 120 % of control | dose: 75.0 mg/kg/injection, schedule: Q01DX001 (ip), vehicle: saline sonified 105 % of control

CC(=O)OC1CC(C(C)C2CC(C)=C(C)C(=O)O2)C2(C)CCC3C(CC4OC45C(O)C=CC(=O)C35C)C12O (configuration not stated)
inactive: dose: 7.5 mg/kg/injection, schedule: Q01DX005 (ip), vehicle: Klucel (hydroxypropylcellulose) (HPC) 108 % of control | dose: 15.0 mg/kg/injection, schedule: Q01DX005 (ip), vehicle: Klucel (hydroxypropylcellulose) (HPC) 105 % of control | [1] 101 % of control

CC(CN1c2ccccc2Sc2ccccc21)N(C)C (configuration not stated)
inactive: dose: 25.0 mg/kg/injection, schedule: Q01DX001 (ip), vehicle: saline 99 % of control | dose: 50.0 mg/kg/injection, schedule: Q01DX001 (ip), vehicle: saline 101 % of control | dose: 100.0 mg/kg/injection, schedule: Q01DX001 (ip), vehicle: saline 95 % of control

C1N2CN3CN1CN(C2)C3
inactive: [2] 95 % of control | [3] 101 % of control | dose: 200.0 mg/kg/injection, schedule: Q01DX005 (ip), vehicle: saline 96 % of control

Oc1c(Br)cc(Br)cc1/C=N/NC(=S)NC12CC3CC(CC(C3)C1)C2
inactive: [1] 87 % of control | [4] 87 % of control | [5] 88 % of control and 93 % of control | [6] 89 % of control

CC(C)(C)OOC(=O)c1ccc(Cl)cc1
inactive: dose: 100.0 mg/kg/injection, schedule: Q04DX002 (ip), vehicle: saline with Tween-80 96 % of control | dose: 200.0 mg/kg/injection, schedule: Q04DX002 (ip), vehicle: saline with Tween-80 95 % of control | dose: 400.0 mg/kg/injection, schedule: Q04DX002 (ip), vehicle: saline with Tween-80 101 % of control

C[N+](C)(C)C
inactive: dose: 2.5 mg/kg/injection, schedule: Q01DX009 (ip), vehicle: saline 110 % of control | dose: 5.0 mg/kg/injection, schedule: Q01DX009 (ip), vehicle: saline 100 % of control | dose: 10.0 mg/kg/injection, schedule: Q01DX009 (ip), vehicle: saline 100 % of control

O=NN(CCCl)C(=O)Oc1ccc(Cl)cc1Cl
inactive: dose: 3.12 mg/kg/injection, schedule: Q01DX001 (ip), vehicle: saline with Tween-80 106 % of control | dose: 6.25 mg/kg/injection, schedule: Q01DX001 (ip), vehicle: saline with Tween-80 118 % of control | dose: 25.0 mg/kg/injection, schedule: Q01DX001 (ip), vehicle: saline with Tween-80 123 % of control | dose: 50.0 mg/kg/injection, schedule: Q01DX001 (ip), vehicle: saline with Tween-80 109 % of control | dose: 100.0 mg/kg/injection, schedule: Q01DX001 (ip), vehicle: saline with Tween-80 122 % of control | dose: 150.0 mg/kg/injection, schedule: Q01DX001 (ip), vehicle: saline with Tween-80 118 % of control

COc1ccc(CCN)c(OC)c1OC
inactive: dose: 50.0 mg/kg/injection, schedule: Q01DX009 (ip), vehicle: saline 105 % of control and 107 % of control | dose: 100.0 mg/kg/injection, schedule: Q01DX009 (ip), vehicle: saline 104 % of control and 110 % of control

NS(=O)(=O)Oc1ccc(Cl)cc1C(=O)Oc1ccc(Cl)cc1
inactive: [4] 91 % of control | [5] 91 % of control | [6] 88 % of control

O=S(=O)(Nc1ncccn1)c1ccc(N=Cc2c3ccccc3nc3ccccc23)cc1
inactive: dose: 12.5 mg/kg/injection, schedule: Q04DX002 (ip), vehicle: Klucel (hydroxypropylcellulose) (HPC) 96 % of control | dose: 25.0 mg/kg/injection, schedule: Q04DX002 (ip), vehicle: Klucel (hydroxypropylcellulose) (HPC) 99 % of control | dose: 50.0 mg/kg/injection, schedule: Q04DX002 (ip), vehicle: Klucel (hydroxypropylcellulose) (HPC) 93 % of control | dose: 100.0 mg/kg/injection, schedule: Q04DX002 (ip), vehicle: Klucel (hydroxypropylcellulose) (HPC) 99 % of control | dose: 200.0 mg/kg/injection, schedule: Q04DX002 (ip), vehicle: Klucel (hydroxypropylcellulose) (HPC) 91 % of control | dose: 400.0 mg/kg/injection, schedule: Q04DX002 (ip), vehicle: Klucel (hydroxypropylcellulose) (HPC) 96 % of control

CCOC(=O)N(C)C(C)=O
inactive: [7] 100 % of control | [8] 97 % of control | [9] 106 % of control | dose: 50.0 mg/kg/injection, schedule: Q01DX009 (ip), vehicle: saline with Tween-80 104 % of control | [10] 96 % of control | dose: 200.0 mg/kg/injection, schedule: Q01DX009 (ip), vehicle: saline 103 % of control

NC=NC(CCC(=O)O)C(=O)O (configuration not stated)
inactive: [2] 106 % of control and 92 % of control | [3] 99 % of control

O=C1c2ccc(Cl)cc2OCCC1CN1CCCCC1 (configuration not stated)
inactive: dose: 100.0 mg/kg/injection, schedule: Q04DX003 (ip), vehicle: saline 100 % of control | dose: 200.0 mg/kg/injection, schedule: Q04DX003 (ip), vehicle: saline 103 % of control

CCCOn1nnc2cc(Cl)ccc21
inactive: [7] 102 % of control | [8] 96 % of control | [9] 99 % of control

COc1ccc([N+](=O)[O-])cc1Br
inactive: [10] 100 % of control | dose: 200.0 mg/kg/injection, schedule: Q01DX009 (ip), vehicle: saline with Tween-80 100 % of control | dose: 400.0 mg/kg/injection, schedule: Q01DX009 (ip), vehicle: saline with Tween-80 100 % of control
